The results in this text go back to patent US11945784B2, “IRE1 small molecule inhibitors” (Cornell University, priority 2018, dated 2024).

As usually defined, the pIC50 is the negative decadic logarithm of the IC50, by convention in mol/L. A word on the pEC50: it is −log10 of the EC50, conventionally taken in molar units.

Structures are written as SMILES. pEC50, pIC50: −log10 of the molar value.

In experiment [1] the target is T1, IRE1α (Homo sapiens (Human), UniProt O75460). Nature of the experiment: In vitro FRET assay. The experiment is classed as biochemical. The note with it: XBP1 RNA probe. On the procedure: In vitro FRET assay was performed to evaluate the ability of select compounds to inhibit IRE1, the results of which are summarized in Table 3. To perform the in vitro FRET assay, 1× complete assay buffer (CAB; […], 50 mM sodium citrate pH 7.15, 1 mM magnesium acetate, 0.02% tween 20) was used to dilute SignalChem IRE1α protein to a final concentration of 2 nM. Selected compounds were serially diluted with DMSO in a non-binding black 384-well plate for a total of 15 ul in each well. 2 ul of the serially diluted compound or DMSO control were then added to new wells containing 98 ul of 1×CAB, for a total volume of 100 ul, 10 ul of which were then transferred to wells of a new plate. 5 ul of the diluted IRE1α was then added to each well. 5 ul of a […] XBP1 RNA probe was then added to each well. Fluorescence was then read over 30 minutes in kinetic mode (485/515 nm).
Two RNA probes were used, XBP1 wildtype (SEQ ID NO: 2) which is able to be spliced by active IRE1α or XBP1 mutant (SEQ ID NO: 3) which is unable to be spliced. Each probe contained a 5′ 6-FAM modification and a 3′ IOWA Black FQ modification.
A second FRET assay was performed to assess ATP-mediated inhibition. In this case, compounds and IRE1α were prepared and combined as discussed above, with the addition of ATP up to 1 mM final concentration. This mixture was incubated at room temperature for 60 minutes and then 5 ul of 400 nM XBP1 wildtype or mutant RNA probe was added. Plates were then read over 30 minutes in kinetic mode (485/515 nm) and rate of fluorescence increase calculated for different compound dilutions to determine IC50 (Table 3).

In experiment [2] the test system is 293T cells. Description: Growth assay (cytotoxicity). Type of experiment: cell-based. The conditions noted are these: Homo sapiens, HEK-293T, 48 h, 2 day incubation, read-out: percentage growth at 5 uM. As to the method:
A growth assay is performed to evaluate the compounds disclosed in Table 1 for cytotoxicity. Briefly, 5,000,000 293T cells are resuspended in 18 mL of cDMEM for a final concentration of 277,777 cells/mL. 180 μL (50,000 cells) cDMEM was seeded per well in 96 well flat bottom plate, with some wells left unfilled. In a 96 well plate, […] cDMEM and 1 uL of any one of the compounds disclosed herein. 133.3 uL cDMEM is added to wells 1, 2, 3, 5, 6, 7, 9, 10, and 11 of row A. Wells are serially diluted with 66.7 uL (highest concentration on right, lowest on left) to the total concentrations shown below. 20 uL of each dilution is transferred in duplicate to the cells plated in the 96-well plate. The plate is then placed in a humidified chamber for a 2 day incubation, and then photographed (media is more yellow in wells with potent cell growth). Absorbance is then measured at […] (lower for more acidic media) and […] (higher for more acidic media).

Experiment [3] deals with T1, IRE1α. Nature of the experiment: In vitro luciferase assay (IRE1α Endoribonuclease Nanoluciferase Assay). Type of experiment: cell-based. The note with it: 293T cells, XBP1 luciferase reporter. As to the method:
Compounds disclosed herein were assessed for disruption of IRE-1 signaling using a IRE1α Endoribonuclease Nanoluciferase Assay. Briefly, 2.5×10^6 293T cells were seeded in a 10 cm^2 tissue culture plate. About 24 hours later, the cells were transfected with Effectene. In a 15 mL Tube, the following was added: 2 μg XBP1 luciferase reporter plasmid (PGK-Luc2-P2A-XBP1u-Nanoluciferase-PEST); 300 μl EC buffer; and 16 μl Enhancer, followed by incubation at room temp for 5 minutes. Next, 60 μl Effectene (Qiagen 301427) was added, followed by incubation at room temperature for 10 minutes. 2.6 mL cDMEM media was added. Old media was aspirated from the cells, followed by addition of 7 mL fresh media. Full transfection mixture was added dropwise to cells. Cells were incubated for 6 hours, followed by trypsinization, centrifugation and resuspension in 11 mL media. 100 uL of cells were plated per a well in a 96 well plate. A day later, ER stressors of choice+/−inhibitors were added. To harvest, media was aspirated from cells completely, then 50 uL 1× passive lysis buffer (Promega: E1941) was added per well and put on shaker (300 rpm) for 30 minutes at room temperature. Cells were centrifuged, and 15 uL sample per well was added to a new, opaque white 384 well plate (Corning 3570). 15 uL OneGlo (nanoluciferase kit, Promega N1630) was added. Plates were spun down, placed on shaker (300 rpm) for 10 minutes. Plates were read on luminometer, 1000 ms integration time per well. 15 uL Stop and Glo (nanoluciferase kit) was added. Plates were spun down, placed on shaker (300 rpm) for 10 minutes. Plates were read on luminometer, 1000 ms second integration time per well. Recordings are provided below in Table 4

T1 sequence (O75460 19-977): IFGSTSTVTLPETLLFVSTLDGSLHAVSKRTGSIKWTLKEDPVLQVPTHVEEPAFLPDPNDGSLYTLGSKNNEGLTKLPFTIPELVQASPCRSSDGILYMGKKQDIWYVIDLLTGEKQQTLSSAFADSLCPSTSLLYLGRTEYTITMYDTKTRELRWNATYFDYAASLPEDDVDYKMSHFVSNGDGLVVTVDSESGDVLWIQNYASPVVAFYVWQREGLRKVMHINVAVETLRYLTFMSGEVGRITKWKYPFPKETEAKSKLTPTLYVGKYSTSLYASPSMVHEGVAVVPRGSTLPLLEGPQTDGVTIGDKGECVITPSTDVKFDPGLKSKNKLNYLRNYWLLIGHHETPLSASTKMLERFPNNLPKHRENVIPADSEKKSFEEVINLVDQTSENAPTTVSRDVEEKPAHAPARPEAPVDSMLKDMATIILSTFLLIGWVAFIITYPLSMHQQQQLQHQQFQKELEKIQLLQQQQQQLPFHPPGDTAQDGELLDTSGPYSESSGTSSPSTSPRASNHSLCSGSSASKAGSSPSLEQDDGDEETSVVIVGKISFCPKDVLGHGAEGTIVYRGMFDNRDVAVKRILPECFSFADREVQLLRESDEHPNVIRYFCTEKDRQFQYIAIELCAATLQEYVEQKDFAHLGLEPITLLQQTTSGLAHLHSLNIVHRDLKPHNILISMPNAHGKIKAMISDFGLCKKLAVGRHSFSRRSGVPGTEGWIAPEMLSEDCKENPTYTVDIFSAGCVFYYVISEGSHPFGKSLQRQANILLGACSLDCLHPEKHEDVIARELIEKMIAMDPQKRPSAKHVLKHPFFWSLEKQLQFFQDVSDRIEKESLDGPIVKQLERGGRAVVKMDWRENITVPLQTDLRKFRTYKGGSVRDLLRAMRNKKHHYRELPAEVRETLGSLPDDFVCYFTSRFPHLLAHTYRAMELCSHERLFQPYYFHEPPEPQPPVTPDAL

In the case of `COc1nc(NS(=O)(=O)c2ccccc2Cl)ccc1CCc1cnc(NC2CCC(N)CC2)nc1` (centres unmarked) [Compound 10, N-(5-(2-(2-(((1r,4r)-4-aminocyclohexyl)amino)pyrimidin-5-yl)ethyl)-6-methoxypyridin-2-yl)-2-chlorobenzenesulfonamide], the pIC50 in experiment [1] was ≥ 9.00. Also, the viability at 5 µM in experiment [2] is > 75%.

For the molecule `Cc1cc(NS(=O)(=O)c2ccccc2Cl)cc(F)c1/C=C/c1cnc(NC2CCC(N(C)C)CC2)nc1` (centres unmarked) [Compound 27, 2-chloro-N-(4-((E)-2-(2-(((1r,4r)-4-(dimethylamino)cyclohexyl)amino)pyrimidin-5-yl)vinyl)-3-fluoro-5-methylphenyl)benzenesulfonamide], the pEC50 in experiment [3] is ≥ 8.30. In experiment [1], the pIC50 is ≥ 9.00. In addition, the viability at 5 µM in experiment [2] was > 50%.

For the molecule `NC1CCC(Nc2ncc(/C=C/c3ccc(NS(=O)(=O)c4ccccc4Cl)nn3)cn2)CC1` (centres unmarked) [Compound 2, N-(6-((E)-2-(2-(((1r,4r)-4-aminocyclohexyl)amino)pyrimidin-5-yl)vinyl)pyridazin-3-yl)-2-chlorobenzenesulfonamide], in experiment [3], the pEC50 is 7.00 to 7.30. The viability at 5 µM in experiment [2] is > 75%.

For the molecule `COc1cc(NS(=O)(=O)c2ccccc2Cl)ccc1/C=C/c1cnc(NC2CCC(N)CC2)nc1` (centres unmarked) [Compound 14, N-(4-((E)-2-(2-(((1r,4r)-4-aminocyclohexyl)amino)pyrimidin-5-yl)vinyl)-3-methoxyphenyl)-2-chlorobenzenesulfonamide], the pEC50 in experiment [3] is ≥ 8.30. Also, in experiment [1], the pIC50 was ≥ 9.00. Further, the viability at 5 µM in experiment [2] is > 35%.

Take `NC1CCC(Nc2ncc(CCc3ccc(NS(=O)(=O)c4ccccc4Cl)c(F)c3)cn2)CC1` (centres unmarked) [Compound 8, N-(4-(2-(2-(((1r,4r)-4-aminocyclohexyl)amino)pyrimidin-5-yl)ethyl)-2-fluorophenyl)-2-chlorobenzenesulfonamide]: in experiment [3], the pEC50 was 5.00 to 7.00. The negative logarithm of the IC50 (pIC50) in experiment [1] is ≥ 9.00. The viability at 5 µM in experiment [2] was > 75%.

Molecule `Cc1nc(NS(=O)(=O)c2ccccc2Cl)c(F)cc1CCc1cnc(NC2CCC(N(C)C)CC2)nc1` (centres unmarked) [Compound 24, 2-chloro-N-(5-(2-(2-(((1r,4r)-4-(dimethylamino)cyclohexyl)amino)pyrimidin-5-yl)ethyl)-3-fluoro-6-methylpyridin-2-yl)benzenesulfonamide] gave a pIC50 in experiment [1] of 8.30 to 9.00. The viability at 5 µM in experiment [2] is > 75%.

On to `COc1nc(NS(=O)(=O)c2ccc(F)c(F)c2Cl)ccc1/C=C/c1cnc(NC2CCC(N(C)C)CC2)nc1` (centres unmarked) [Compound 41, 2-chloro-N-(5-((E)-2-(2-(((1r,4r)-4-(dimethylamino)cyclohexyl)amino)pyrimidin-5-yl)vinyl)-6-methoxypyridin-2-yl)-3,4-difluorobenzenesulfonamide], for which the pEC50 in experiment [3] was 7.30 to 8.30. Besides, the pIC50 in experiment [1] is ≥ 9.00. Also, in experiment [2], the viability at 5 µM was > 75%.

Regarding `CCc1nc(NS(=O)(=O)c2ccccc2Cl)ccc1/C=C/c1cnc(NC2CCC(N(C)C)CC2)nc1` (centres unmarked) [Compound 29, 2-chloro-N-(5-((E)-2-(2-(((1r,4r)-4-(dimethylamino)cyclohexyl)amino)pyrimidin-5-yl)vinyl)-6-ethylpyridin-2-yl)benzenesulfonamide], the pEC50 in experiment [3] is ≥ 8.30. For the same molecule, the pIC50 in experiment [1] is ≥ 9.00.

On to `Cc1cc(NS(=O)(=O)c2ccccc2Cl)ccc1/C=C/c1cnc(NC2CCC(N)CC2)nc1` (centres unmarked) [Compound 5, N-(4-((E)-2-(2-(((1r,4r)-4-aminocyclohexyl)amino)pyrimidin-5-yl)vinyl)-3-methylphenyl)-2-chlorobenzenesulfonamide], for which the negative logarithm of the EC50 (pEC50) in experiment [3] is ≥ 8.30. Further, the pIC50 in experiment [1] was ≥ 9.00.

As to `CCCc1nc(NC2CCC(N)CC2)ncc1/C=C/c1ccc(NS(=O)(=O)c2ccccc2Cl)cc1` (centres unmarked) [Compound 4, N-(4-((E)-2-(2-(((1r,4r)-4-aminocyclohexyl)amino)-4-propylpyrimidin-5-yl)vinyl)phenyl)-2-chlorobenzenesulfonamide], the pEC50 in experiment [3] was 7.00 to 7.30. Further, the pIC50 in experiment [1] is 8.30 to 9.00.

Molecule `Cc1nc(NS(=O)(=O)c2ccc(F)c(F)c2Cl)ccc1/C=C/c1cnc(NC2CCC(N(C)C)CC2)nc1` (centres unmarked) [Compound 38, 2-chloro-N-(5-((E)-2-(2-(((1r,4r)-4-(dimethylamino)cyclohexyl)amino)pyrimidin-5-yl)vinyl)-6-methylpyridin-2-yl)-3,4-difluorobenzenesulfonamide] showed a negative-log EC50 (pEC50) in experiment [3] of 7.30 to 8.30. The pIC50 in experiment [1] is ≥ 9.00.

Molecule `COc1cc(NS(=O)(=O)c2ccccc2Cl)ccc1CCc1cnc(NC2CCC(N)CC2)nc1` (centres unmarked) [Compound 15, N-(4-(2-(2-(((1r,4r)-4-aminocyclohexyl)amino)pyrimidin-5-yl)ethyl)-3-methoxyphenyl)-2-chlorobenzenesulfonamide] showed a pEC50 in experiment [3] of 5.00 to 7.00. For the same molecule, in experiment [1], the pIC50 is ≥ 9.00.

As to `COc1cc(NS(=O)(=O)c2ccccc2Cl)ccc1/C=C/c1cnc(NC2CCC(N(C)C)CC2)nc1` (centres unmarked) [Compound 55, 2-chloro-N-(4-((E)-2-(2-(((1r,4r)-4-(dimethylamino)cyclohexyl)amino)pyrimidin-5-yl)vinyl)-3-methoxyphenyl)benzenesulfonamide], in experiment [3], the pEC50 is ≥ 8.30. In addition, the pIC50 in experiment [1] is ≥ 9.00.

Regarding `CNC1CCC(Nc2ncc(C=Cc3ccc(NS(=O)(=O)c4ccccc4Cl)nc3C)cn2)CC1` (centres unmarked) [Compound 44, 2-chloro-N-(6-methyl-5-(2-(2-(((1r,4r)-4-(methylamino)cyclohexyl)amino)pyrimidin-5-yl)vinyl)pyridin-2-yl)benzenesulfonamide], the pEC50 in experiment [3] was 7.30 to 8.30. The pIC50 in experiment [1] is ≥ 9.00.

For `COc1nc(NS(=O)(=O)c2ccc(F)cc2Cl)ccc1/C=C/c1cnc(NC2CCC(N(C)C)CC2)nc1` (centres unmarked) [Compound 32, 2-chloro-N-(5-((E)-2-(2-(((1r,4r)-4-(dimethylamino)cyclohexyl)amino)pyrimidin-5-yl)vinyl)-6-methoxypyridin-2-yl)-4-fluorobenzenesulfonamide], the pEC50 in experiment [3] was ≥ 8.30. Further, the pIC50 in experiment [1] was ≥ 9.00.

Turning to `Cc1nc(NS(=O)(=O)c2ccccc2Cl)c(F)cc1/C=C/c1cnc(NC2CCC(N(C)C)CC2)nc1` (centres unmarked) [Compound 22, 2-chloro-N-(5-((E)-2-(2-(((1r,4r)-4-(dimethylamino)cyclohexyl)amino)pyrimidin-5-yl)vinyl)-3-fluoro-6-methylpyridin-2-yl)benzenesulfonamide], in experiment [3], the pEC50 was ≥ 8.30. The pIC50 in experiment [1] is ≥ 9.00.

In turn, `CCc1nc(NS(=O)(=O)c2cnccc2Cl)ccc1/C=C/c1cnc(NC2CCC(N(C)C)CC2)nc1` (centres unmarked) [Compound 42, 4-chloro-N-(5-((E)-2-(2-(((1r,4r)-4-(dimethylamino)cyclohexyl)amino)pyrimidin-5-yl)vinyl)-6-ethylpyridin-2-yl)pyridine-3-sulfonamide] gave a pEC50 in experiment [3] of 7.30 to 8.30. Also, the pIC50 in experiment [1] was ≥ 9.00.
